Results: patent publication US10329294B2, “Pyrazolopyrimidine inhibitors of IRAK4 activity” (MERCK SHARP & DOHME CORP., priority 2015, dated 2019)
Structures can show the parent of a compound that is named as a salt. Where two headings read alike, the source gives them in different places.

Target: IRAK4 (Homo sapiens (Human), UniProt Q9NWZ3)
Assay: IRAK4 Kinase Assay
Type: biochemical
Details: IMAP fluorescence polarization, 0.5 nM GST tagged IRAK4, 100 μM ATP, 30 minutes at 25° C.

Chain of IRAK4 (Q9NWZ3 whole entry): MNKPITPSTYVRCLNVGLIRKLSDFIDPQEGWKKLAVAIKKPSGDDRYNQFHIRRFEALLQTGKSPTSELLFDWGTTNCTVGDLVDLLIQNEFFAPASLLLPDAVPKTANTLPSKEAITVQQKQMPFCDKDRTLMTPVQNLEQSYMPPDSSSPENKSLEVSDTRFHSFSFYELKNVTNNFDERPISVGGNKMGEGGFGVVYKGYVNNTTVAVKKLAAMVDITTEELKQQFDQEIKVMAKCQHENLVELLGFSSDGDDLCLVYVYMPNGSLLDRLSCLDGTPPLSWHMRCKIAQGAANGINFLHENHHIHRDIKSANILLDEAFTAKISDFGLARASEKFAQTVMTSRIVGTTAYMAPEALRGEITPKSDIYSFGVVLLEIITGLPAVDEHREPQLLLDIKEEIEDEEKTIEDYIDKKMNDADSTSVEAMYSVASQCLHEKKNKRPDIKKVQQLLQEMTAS

Compound | IC50 (read-out: IRAK4 IC50) [nM] | IC50 (IRAK4 IC50 (nM)) [nM]
CC(C)n1cc(NC(=O)c2cnn3ccc(N[C@@H]4CCCC[C@@H]4O)nc23)c(C(F)(F)F)n1 [Example 52, 5-{[(1R,2S)-2-hydroxycyclohexyl]amino}-N-[1-(1-methylethyl)-3-(trifluoromethyl)-1H-pyrazol-4-yl]pyrazolo[1,5-a]pyrimidine-3-carboxamide] | – | 64
CC(C)n1cc(NC(=O)c2cnn3ccc(N4CC5CCC4CN5)nc23)c(C(F)(F)F)n1 (stereo not shown) [Example 53, 5-(2,5-diazabicyclo[2.2.2]oct-2-yl)-N-[1-(1-methylethyl)-3-(trifluoromethyl)-1H-pyrazol-4-yl]pyrazolo[1,5-a]pyrimidine-3-carboxamide] | 48 | –
CC(C)n1cc(NC(=O)c2cnn3ccc(N[C@@H]4CCCC(F)(F)[C@@H]4N)nc23)c(C(F)(F)F)n1 [Example 56, 5-{[(1R,2R)-2-amino-3,3-difluorocyclohexyl]amino}-N-[1-(1-methylethyl)-3-(trifluoromethyl)-1H-pyrazol-4-yl]pyrazolo[1,5-a]pyrimidine-3-carboxamide trifluoroacetate] | 626 | –
O=C(Nc1cn(CC(F)(F)F)nc1C(F)(F)F)c1cnn2ccc(N[C@@H]3CCCC[C@@H]3O)nc12 [Example 57, 5-{[(1R,2S)-2-hydroxycyclohexyl]amino}-N-[1-(2,2,2-trifluoroethyl)-3-(trifluoromethyl)-1H-pyrazol-4-yl]pyrazolo[1,5-a]pyrimidine-3-carboxamide trifluoroacetate] | 320 | –
O=C(Nc1cn(CC(F)(F)F)nc1C(F)(F)F)c1cnn2ccc(N3CC4CCC3CN4)nc12 (stereo not shown) [Example 58, 5-(2,5-diazabicyclo[2.2.2]oct-2-yl)-N-[1-(2,2,2-trifluoroethyl)-3-(trifluoromethyl)-1H-pyrazol-4-yl]pyrazolo[1,5-a]pyrimidine-3-carboxamide trifluoroacetate] | 267 | –
O=C(Nc1cn(CC(F)F)nc1C(F)(F)F)c1cnn2ccc(N3CCNCC3)nc12 [Example 62, N-[1-(2,2-difluoroethyl)-3-(trifluoromethyl)-1H-pyrazol-4-yl]-5-piperazin-1-ylpyrazolo[1,5-a]pyrimidine-3-carboxamide trifluoroacetate] | 29 | –
O=C(Nc1cn(CC(F)F)nc1C(F)(F)F)c1cnn2ccc(N[C@@H]3CCCC[C@@H]3O)nc12 [Example 63, N-[1-(2,2-difluoroethyl)-3-(trifluoromethyl)-1H-pyrazol-4-yl]-5-{[(1R,2S)-2-hydroxycyclohexyl]amino} pyrazolo[1,5-a]pyrimidine-3-carboxamide trifluoroacetate] | 38 | –
O=C(Nc1cn(CC(F)F)nc1C(F)(F)F)c1cnn2ccc(N3CCNCC4(CC4)C3)nc12 [Example 64, 5-(5,8-diazaspiro[2.6]non-5-yl)-N-[1-(2,2-difluoroethyl)-3-(trifluoromethyl)-1H-pyrazol-4-yl]pyrazolo[1,5-a]pyrimidine-3-carboxamide trifluoroacetate] | 18 | –
Cn1cc(NC(=O)c2cnn3ccc(N4CC5CNC(COC5)C4)nc23)c(C(F)(F)F)n1 (stereo not shown) [Example 80, N-[1-methyl-3-(trifluoromethyl)-1H-pyrazol-4-yl]-5-(3-oxa-7,9-diazabicyclo[3.3.2]dec-7-yl)pyrazolo[1,5-a]pyrimidine-3-carboxamide trifluoroacetate] | 29 | –
Cn1cc(NC(=O)c2cnn3ccc(N4CC5CCC(C4)N5)nc23)c(C(F)(F)F)n1 [Example 81, 5-(3,8-diazabicyclo[3.2.1]oct-3-yl)-N-[1-methyl-3-(trifluoromethyl)-1H-pyrazol-4-yl]pyrazolo[1,5-a]pyrimidine-3-carboxamide trifluoroacetate] | 9 | –
Cn1cc(NC(=O)c2cnn3ccc(N4CC5CNCC4C5)nc23)c(C(F)(F)F)n1 (stereo not shown) [Example 82, 5-(3,6-diazabicyclo[3.2.1]oct-6-yl)-N-[1-methyl-3-(trifluoromethyl)-1H-pyrazol-4-yl]pyrazolo[1,5-a]pyrimidine-3-carboxamide trifluoroacetate] | 114 | –
Cn1cc(NC(=O)c2cnn3ccc(N4[C@@H]5CC[C@H]4[C@@H]4CC[C@H]5N4)nc23)c(C(F)(F)F)n1 [Example 92, 5-[9,10-diazatricyclo[4.2.1.1~2,5~]dec-9-yl]-N-]1-methyl-3-(trifluoromethyl)-1H-pyrazol-4-yl]pyrazolo[1,5-a]pyrimidine-3-carboxamide trifluoroacetate] | 115 | –

The next lines start with results.

IC50 (read-out: IRAK4 IC50) [nM] | Compound | IC50 (IRAK4 IC50 (nM)) [nM]
59 | O=C(Nc1cn(CC(F)F)nc1C(F)(F)F)c1cnn2ccc(N3CC4CCC3CN4)nc12 (stereo not shown) [Example 65, 5-(2,5-diazabicyclo[2.2.2]oct-2-yl)-N-[1-(2,2-difluoroethyl)-3-(trifluoromethyl)-1H-pyrazol-4-yl]pyrazolo[1,5-a]pyrimidine-3-carboxamide trifluoroacetate] | –
244 | N[C@@H]1[C@H](Nc2ccn3ncc(C(=O)Nc4cn(CC(F)F)nc4C(F)(F)F)c3n2)CCCC1(F)F [Example 66, 5-{[(1R,2R)-2-amino-3,3-difluorocyclohexyl]amino}-N-[1-(2,2-difluoroethyl)-3-(trifluoromethyl)-1H-pyrazol-4-yl]pyrazolo[1,5-a]pyrimidine-3-carboxamide trifluoroacetate] | –
74 | O=C(Nc1cn(C(F)F)nc1C(F)(F)F)c1cnn2ccc(N3CC4CCC3CN4)nc12 (stereo not shown) [Example 67, 5-(2,5-diazabicyclo[2.2.2]oct-2-yl)-N-[1-(difluoromethyl)-3-(trifluoromethyl)-1H-pyrazol-4-yl]pyrazolo[1,5-a]pyrimidine-3-carboxamide trifluoroacetate] | –
32 | O=C(Nc1cn(C(F)F)nc1C(F)(F)F)c1cnn2ccc(N3CCNCC4(CC4)C3)nc12 [Example 68, 5-(5,8-diazaspiro[2.6]non-5-yl)-N-[1-(difluoromethyl)-3-(trifluoromethyl)-1H-pyrazol-4-yl]pyrazolo[1,5-a]pyrimidine-3-carboxamide trifluoroacetate] | –
927 | N[C@@H]1[C@H](Nc2ccn3ncc(C(=O)Nc4cn(CC(F)(F)F)nc4C(F)(F)F)c3n2)CCCC1(F)F [Example 69, 5-{[(1R,2R)-2-amino-3,3-difluorocyclohexyl]amino}-N-[1-(2,2,2-trifluoroethyl)-3-(trifluoromethyl)-1H-pyrazol-4-yl]pyrazolo[1,5-a]pyrimidine-3-carboxamide trifluoroacetate] | –
51 | O=C(Nc1cn(CC(F)(F)F)nc1C(F)(F)F)c1cnn2ccc(N3CCNCC4(CC4)C3)nc12 [Example 70, 5-(5,8-diazaspiro[2.6]non-5-yl)-N-[1-(2,2,2-trifluoroethyl)-3-(trifluoromethyl)-1H-pyrazol-4-yl]pyrazolo[1,5-a]pyrimidine-3-carboxamide trifluoroacetate] | –
328 | N[C@@H]1[C@H](Nc2ccn3ncc(C(=O)Nc4cn(C(F)F)nc4C(F)(F)F)c3n2)CCCC1(F)F [Example 71, 5-{[(1R,2R)-2-amino-3,3-difluorocyclohexyl]amino}-N-[1-(difluoromethyl)-3-(trifluoromethyl)-1H-pyrazol-4-yl]pyrazolo[1,5-a]pyrimidine-3-carboxamide trifluoroacetate] | –
141 | O=C(Nc1cn(C(F)F)nc1C(F)(F)F)c1cnn2ccc(N[C@@H]3CCCC[C@@H]3O)nc12 [Example 72, N-[1-(difluoromethyl)-3-(trifluoromethyl)-1H-pyrazol-4-yl]-5-{[(1R,2S)-2-hydroxycyclohexyl]amino} pyrazolo[1,5-a]pyrimidine-3-carboxamide trifluoroacetate] | –
144 | Cn1cc(NC(=O)c2cnn3ccc(N4CC5CCC4CCN5)nc23)c(C(F)(F)F)n1 (stereo not shown) [Example 73, 5-(2,6-diazabicyclo[3.2.2]non-6-yl)-N-[1-methyl-3-(trifluoromethyl)-1H-pyrazol-4-yl]pyrazolo[1,5-a]pyrimidine-3-carboxamide trifluoroacetate] | –
41 | Cn1cc(NC(=O)c2cnn3ccc(N4CC5CC4CCN5)nc23)c(C(F)(F)F)n1 (stereo not shown) [Example 74, 5-(2,6-diazabicyclo[3.2.1]oct-6-yl)-N-[1-methyl-3-(trifluoromethyl)-1H-pyrazol-4-yl]pyrazolo[1,5-a]pyrimidine-3-carboxamide trifluoroacetate] | –
0.9 | N[C@H]1CCCC[C@H]1Nc1ccn2ncc(C(=O)Nc3cscc3Br)c2n1 [Example 76, 5-{[(1R,2S)-2-aminocyclohexyl]amino}-N-(4-bromothiophen-3-yl)pyrazolo[1,5-a]pyrimidine-3-carboxamide trifluoroacetate] | –
62 | CC1CN(c2ccn3ncc(C(=O)Nc4cn(C)nc4C(F)(F)F)c3n2)C(C)CN1 (stereo not shown) [Example 79, 5-(2,5-dimethylpiperazin-1-yl)-N-[1-methyl-3-(trifluoromethyl)-1H-pyrazol-4-yl]pyrazolo[1,5-a]pyrimidine-3-carboxamide trifluoroacetate] | –
2 | Cn1cc(NC(=O)c2cnn3ccc(N4CCNCC5(CC5)C4)nc23)c(C(F)F)n1 [Example 86, 5-(5,8-diazaspiro[2.6]non-5-yl)-N-[3-(difluoromethyl)-1-methyl-1H-pyrazol-4-yl]pyrazolo[1,5-a]pyrimidine-3-carboxamide trifluoroacetate] | –
4 | Cn1cc(NC(=O)c2cnn3ccc(N4CCCNCC4)nc23)c(C(F)F)n1 [Example 87, 5-(1,4-diazepan-1-yl)-N-[3-(difluoromethyl)-1-methyl-1H-pyrazol-4-yl]pyrazolo[1,5-a]pyrimidine-3-carboxamide trifluoroacetate] | –
0.5 | Cn1cc(NC(=O)c2cnn3ccc(N4CCC[C@@H](N)C4)nc23)c(C(F)F)n1 [Example 90, 5-[(3R)-3-aminopiperidin-1-yl]-N-[3-(difluoromethyl)-1-methyl-1H-pyrazol-4-yl]pyrazolo[1,5-a]pyrimidine-3-carboxamide trifluoroacetate] | –
0.5 | Cn1cc(NC(=O)c2cnn3ccc(N[C@@H]4CCCNC4)nc23)c(C(F)F)n1 [Example 91, N-[3-(difluoromethyl)-1-methyl-1H-pyrazol-4-yl]-5-[(3R)-piperidin-3-ylamino]pyrazolo[1,5-a]pyrimidine-3-carboxamide trifluoroacetate] | –
